Experimental findings from patent publication US11066445B2, “Immunomodulators acting as antagonists of PD-1” (Bristol-Myers Squibb Company, priority 2017, dated 2021) are described below.

Starred links: 1 amine or outer side, 2 acyl side, 3 side chain; linkers in the order of their positions; H or OH if unused. Positions of bridges follow the written chain, without caps; N, C: chain ends. Non-standard residues stand in square brackets, D forms with d. Residues, ends and D or L forms follow the SMILES beside them. *: point of attachment. X3 = O=C(O)CCCCCCCCCCCCCCCCC(=O)N[C@@H](CCC(=O)NCCCOCCOCCOCCCN*)C(=O)O; Trp(1-CH2CONHSO2Me) = CS(=O)(=O)NC(=O)Cn1cc(C[C@H](N)C(=O)O)c2ccccc21; X1 = O=C(O)CCCCCCCCCCCCCCC(=O)N[C@@H](CCC(=O)NCCCOCCOCCOCCCN*)C(=O)O; Trp(4-aza,1-CH2COOH) = N[C@@H](Cc1cn(CC(=O)O)c2cccnc12)C(=O)O; Trp(1-CH2CO2Me) = COC(=O)Cn1cc(C[C@H](N)C(=O)O)c2ccccc21; X2 = O=C(O)Cn1cc(C[C@@H](N[*:1])C(=O)[*:2])c2cccnc21; X4 = O=C(O)Cn1nc(C[C@H](N[*:1])C(=O)[*:2])c2ccccc21; d(cisHyp) = O=C(O)[C@H]1C[C@@H](O)CN1; Hyp = O=C(O)[C@@H]1C[C@@H](O)CN1; NMeNle = CCCC[C@H](NC)C(=O)O; NMeA = CN[C@@H](C)C(=O)O; Dab = NCC[C@H](N)C(=O)O; Dap = NC[C@H](N)C(=O)O; Sar = CNCC(=O)O

As a reminder, the IC50 is the concentration at which inhibition is half-maximal.

The test deals with T1, PD-1-Ig binding to PD-L1-TVMV-His (PD-L1-His) (Homo sapiens, UniProt Q9NZQ7).
T1 construct: hPDL1(19-239)-TVMV-His; TVMV protease cleavage site (C); made in house; host or cells: HEK293T cells
The test can be described thus: PD-1/PD-L1 Homogenous Time-Resolved Fluorescence (HTRF) binding assay. As to conditions: PD-1-Ig (20 nM) / PD-L1-His (10 nM); range classes; read-out: LE HTRF hPD1 hPDL1 IC50. An excerpt:
Methods for Testing the Ability of Macrocyclic Peptides to Compete for the Binding of Pd-1 to Pd-L1 Using Homogenous Time-Resolved Fluorescence (HTRF) Binding Assays
The ability of the macrocyclic peptides of the present disclosure to bind to PD-L1 was investigated using a PD-1/PD-L1 Homogenous Time-Resolved Fluorescence (HTRF) binding assay.
Homogenous Time-Resolved Fluorescence (HTRF) Assays of Binding of Soluble PD-1 to Soluble PD-L1. Soluble PD-1 and soluble PD-L1 refers to proteins with carboxyl-end truncations that remove the transmembrane-spanning regions and are fused to heterologous sequences, specifically the Fc portion of the human immunoglobuling G sequence (Ig) or the hexahistidine epitope tag (His). All binding studies were performed in an HTRF assay buffer consisting of dPBS supplemented with 0.1% (w/v) bovine serum albumin and 0.05% (v/v) Tween-20. For the PD-1-Ig/PD-L1-His binding assay, inhibitors were pre-incubated with PD-L1-His (10 nM final) for 15 m in 4 μl of assay buffer, followed by addition of PD-1-Ig (20 nM final) in 1 μl of assay buffer and further incubation for 15 m. PD-L1 fusion proteins from either human, cynomologous macaques, mouse, or other species were used. HTRF detection was achieved using europium crypate-labeled anti-Ig monoclonal antibody (1 nM final) and allophycocyanin (APC) labeled anti-His monoclonal antibody (20 nM final). Antibodies were diluted in HTRF detection buffer and 5 μl was dispensed on top of binding reaction. The reaction was allowed to equilibrate for 30 minutes and signal (665 nm/620 nm ratio) was obtained using an EnVision fluorometer. Additional binding assays were established between PD-1-Ig/PD-L2-His (20 and 5 nM, respectively), CD80-His/PD-L1-Ig (100 and 10 nM, respectively) and CD80-His/CTLA4-Ig (10 and 5 nM, respectively). Binding/competition studies between biotinylated Compound No. 71 and human PD-L1-His were performed as follows. Macrocyclic peptide inhibitors were pre-incubated with PD-L1-His (10 nM final) for 60 minutes in 4 μl of assay buffer followed by addition of biotinylated Compound No. 71 (0.5 nM final) in 1 μl of assay buffer. Binding was allowed to equilibrate for 30 minutes followed by addition of europium crypated labeled Streptavidin (2.5 pM final) and APC-labeled anti-His (20 nM final) in 5 μl of HTRF buffer. The reaction was allowed to equilibrate for 30 m and signal (665 nm/620 nm ratio) was obtained using an EnVision fluorometer.
Recombinant Proteins. Carboxyl-truncated human PD-1 (amino acids 25-167) with a C-terminal human Ig epitope tag [hPD-1 (25-167)-3S-IG] and human PD-L1 (amino acids 18-239) with a C-terminal His epitope tag [hPD-L1(19-239)-tobacco vein mottling virus protease cleavage site (TVMV)-His] were expressed in HEK293T cells and purified sequentially by recombinant Protein A affinity chromatography and size exclusion chromatography. Human PD-L2-His (Sino Biologicals), CD80-His (Sino Biologicals), CTLA4-Ig (RnD Systems) were all obtained through commercial sources.
Ranges are as follows: A=0.010-0.060 μM; B=0.0011-0.009 μM; C=0.0003-0.0010 μM.
Background: Time-resolved FRET reads energy transfer from a long-lived donor to a nearby acceptor.

T1 sequence (Q9NZQ7 with tags, fused parts or gaps): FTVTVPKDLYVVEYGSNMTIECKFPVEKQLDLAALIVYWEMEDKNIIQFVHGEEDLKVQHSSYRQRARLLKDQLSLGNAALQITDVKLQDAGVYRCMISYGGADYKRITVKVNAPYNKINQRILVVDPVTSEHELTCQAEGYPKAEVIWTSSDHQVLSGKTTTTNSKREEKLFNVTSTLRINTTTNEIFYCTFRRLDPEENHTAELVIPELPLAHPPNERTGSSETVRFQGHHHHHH

For the compound `CCCC[C@H]1C(=O)N(C)[C@@H](CCCC)C(=O)N[C@@H](CC(C)C)C(=O)N[C@H](C(=O)NCC(=O)N[C@@H](Cc2cn(CCOCCOCCOCCOCCOCCOCCOCCOCCOCCOCCOCCNC(=O)CCC(NC(=O)CCCCCCCCCCCCCCCCC(=O)O)C(=O)O)nn2)C(=O)O)CSCC(=O)N[C@@H](Cc2ccc(O)cc2)C(=O)N(C)[C@@H](C)C(=O)N[C@@H](CC(N)=O)C(=O)N2CCC[C@H]2C(=O)N[C@@H](CN)C(=O)N[C@@H](CC(C)C)C(=O)N2C[C@H](O)C[C@H]2C(=O)N[C@@H](Cc2c[nH]c3ccccc23)C(=O)N[C@@H](CCN)C(=O)N[C@@H](Cc2cn(CC(=O)O)c3ccc(OC)cc23)C(=O)N1C` (stereo partly shown) [Example 27], the half-maximal inhibitory concentration (IC50) was in the range of 0.3 to 1 nM.
Take `CCCC[C@H]1C(=O)N(C)[C@@H](CCCC)C(=O)N[C@@H](CC(C)C)C(=O)N[C@H](C(=O)NCC(=O)NCCCOCCOCCOCCCNC(=O)CC[C@H](NC(=O)CCCCCCCCCCCCCCCCC(=O)O)C(=O)O)CSCC(=O)N[C@@H](Cc2ccc(O)cc2)C(=O)N(C)[C@@H](C)C(=O)N[C@@H](CC(N)=O)C(=O)N2CCC[C@H]2C(=O)N[C@@H](CN)C(=O)N[C@@H](CC(C)C)C(=O)N2C[C@H](O)C[C@H]2C(=O)N[C@@H](Cc2c[nH]c3ccccc23)C(=O)N[C@@H](CCN)C(=O)N[C@@H](Cc2cn(CC(=O)NS(C)(=O)=O)c3ccccc23)C(=O)N1C` [Example 3] ({CH2CO}-Y[NMeA]NP[Dap]L[Hyp]W[Dab][Trp(1-CH2CONHSO2Me)][NMeNle][NMeNle]LCG-X3; thioether N-14): the concentration for half-maximal inhibition (IC50) was in the range of 1.1 to 9 nM.
The result for `CCCC[C@H]1C(=O)N(C)[C@@H](CCCC)C(=O)N[C@@H](CC(C)C)C(=O)N[C@H](C(=O)NCC(=O)N[C@@H](CC(=O)NCCCOCCOCCOCCCNC(=O)CC[C@H](NC(=O)CCCCCCCCCCCCCCCCC(=O)O)C(=O)O)C(=O)O)CSCC(=O)N[C@@H](Cc2ccc(O)cc2)C(=O)N(C)[C@@H](C)C(=O)N[C@@H](CC(N)=O)C(=O)N(C)CC(=O)N[C@@H](CN)C(=O)N[C@@H](CC(C)C)C(=O)N2C[C@H](O)C[C@H]2C(=O)N[C@@H](Cc2c[nH]c3ccccc23)C(=O)N[C@@H](CCN)C(=O)N[C@@H](Cc2nn(CC(=O)O)c3ccccc23)C(=O)N1C` [Example 6] ({CH2CO}-Y[NMeA]N[Sar][Dap]L[Hyp]W[Dab][X4][NMeNle][NMeNle]LCGD(X3)-OH; thioether N-14) reads 1.1 to 9 nM; that for `CCCC[C@H]1C(=O)N(C)[C@@H](CCCC)C(=O)N[C@@H](CC(C)C)C(=O)N[C@H](C(=O)NCC(=O)N[C@@H](CC(=O)NCCCOCCOCCOCCCNC(=O)CC[C@H](NC(=O)CCCCCCCCCCCCCCCCC(=O)O)C(=O)O)C(=O)O)CSCC(=O)N[C@@H](Cc2ccc(O)cc2)C(=O)N(C)[C@@H](C)C(=O)N[C@@H](CC(N)=O)C(=O)N(C)CC(=O)N[C@@H](CN)C(=O)N[C@@H](CC(C)C)C(=O)N2C[C@H](O)C[C@@H]2C(=O)N[C@@H](Cc2c[nH]c3ccccc23)C(=O)N[C@@H](CCN)C(=O)N[C@@H](Cc2cn(CC(=O)OC)c3ccccc23)C(=O)N1C` [Example 10] ({CH2CO}-Y[NMeA]N[Sar][Dap]L[d(cisHyp)]W[Dab][Trp(1-CH2CO2Me)][NMeNle][NMeNle]LCGD(X3)-OH; thioether N-14), 1.1 to 9 nM; that for `CCCC[C@H]1C(=O)N(C)[C@@H](CCCC)C(=O)N[C@@H](CC(C)C)C(=O)N[C@H](C(=O)NCC(=O)N[C@@H](Cc2cn(CCOCCOCCOCCOCCOCCOCCOCCOCCOCCOCCOCCNC(=O)CC[C@H](NC(=O)CCCCCCCCCCCCCCCCC(=O)O)C(=O)O)nn2)C(=O)O)CSCC(=O)N[C@@H](Cc2ccc(O)cc2)C(=O)N(C)[C@@H](C)C(=O)N[C@@H](CC(N)=O)C(=O)N2CCC[C@H]2C(=O)N[C@@H](CN)C(=O)N[C@@H](CC(C)C)C(=O)N2C[C@H](O)C[C@H]2C(=O)N[C@@H](Cc2c[nH]c3ccccc23)C(=O)N[C@@H](CCN)C(=O)N[C@@H](Cc2nn(CC(=O)O)c3ccccc23)C(=O)N1C` [Example 29], 0.3 to 1 nM.
The result for `CCCC[C@H]1C(=O)N(C)[C@@H](CCCC)C(=O)N[C@@H](CC(C)C)C(=O)N[C@H](C(=O)NCC(=O)N[C@@H](CC(=O)NCCCOCCOCCOCCCNC(=O)CC[C@H](NC(=O)CCCCCCCCCCCCCCC(=O)O)C(=O)O)C(=O)O)CSCC(=O)N[C@@H](Cc2ccc(O)cc2)C(=O)N(C)[C@@H](C)C(=O)N[C@@H](CC(N)=O)C(=O)N2CCC[C@H]2C(=O)N[C@@H](CN)C(=O)N[C@@H](CC(C)C)C(=O)N2C[C@H](O)C[C@H]2C(=O)N[C@@H](Cc2c[nH]c3ccccc23)C(=O)N[C@@H](CCN)C(=O)N[C@@H](Cc2cn(CC(=O)O)c3cccnc23)C(=O)N1C` [Example 18] ({CH2CO}-Y[NMeA]NP[Dap]L[Hyp]W[Dab][Trp(4-aza,1-CH2COOH)][NMeNle][NMeNle]LCGD(X1)-OH; thioether N-14) reads 10 to 60 nM; that for `CCCC[C@H]1C(=O)N(C)[C@@H](CCCC)C(=O)N[C@@H](CC(C)C)C(=O)N[C@H](C(=O)N[C@@H](Cc2cn(CCOCCOCCOCCOCCOCCOCCOCCOCCOCCOCCOCCNC(=O)CC[C@H](NC(=O)CCCCCCCCCCCCCCCCC(=O)O)C(=O)O)nn2)C(=O)O)CSCC(=O)N[C@@H](Cc2ccc(O)cc2)C(=O)N(C)[C@@H](C)C(=O)N[C@@H](CC(N)=O)C(=O)N2CCC[C@H]2C(=O)N[C@@H](CN)C(=O)N[C@@H](CC(C)C)C(=O)N2C[C@H](O)C[C@H]2C(=O)N[C@@H](Cc2c[nH]c3ccccc23)C(=O)N[C@@H](CCN)C(=O)N[C@@H](Cc2nn(CC(=O)O)c3ccc(OC)cc23)C(=O)N1C` [Example 24], 0.3 to 1 nM; that for `CCCC[C@H]1C(=O)N(C)[C@@H](CCCC)C(=O)N[C@@H](CC(C)C)C(=O)N[C@H](C(=O)NCC(=O)N[C@@H](CC(=O)NCCCOCCOCCOCCCNC(=O)CC[C@H](NC(=O)CCCCCCCCCCCCCCCCC(=O)O)C(=O)O)C(=O)O)CSCC(=O)N[C@@H](Cc2ccc(O)cc2)C(=O)N(C)[C@@H](C)C(=O)N[C@@H](CC(N)=O)C(=O)N(C)CC(=O)N[C@@H](CN)C(=O)N[C@@H](CC(C)C)C(=O)N2C[C@H](O)C[C@H]2C(=O)N[C@@H](Cc2c[nH]c3ccccc23)C(=O)N[C@@H](CCN)C(=O)N[C@@H](Cc2cn(CC(=O)NS(C)(=O)=O)c3ccccc23)C(=O)N1C` [Example 2] ({CH2CO}-Y[NMeA]N[Sar][Dap]L[Hyp]W[Dab][Trp(1-CH2CONHSO2Me)][NMeNle][NMeNle]LCGD(X3)-OH; thioether N-14), 1.1 to 9 nM.
The result for `CCCC[C@H]1C(=O)N(C)[C@@H](CCCC)C(=O)N[C@@H](CC(C)C)C(=O)N[C@H](C(=O)NCC(=O)N[C@@H](CC(=O)NCCCOCCOCCOCCCNC(=O)CC[C@H](NC(=O)CCCCCCCCCCCCCCC(=O)O)C(=O)O)C(=O)O)CSCC(=O)N[C@@H](Cc2ccc(O)cc2)C(=O)N(C)[C@@H](C)C(=O)N[C@@H](CC(N)=O)C(=O)N2CCC[C@H]2C(=O)N[C@@H](CN)C(=O)N[C@@H](CC(C)C)C(=O)N2C[C@H](O)C[C@H]2C(=O)N[C@@H](Cc2c[nH]c3ccccc23)C(=O)N[C@@H](CCN)C(=O)N[C@@H](Cc2nn(CC(=O)O)c3ccccc23)C(=O)N1C` [Example 17] ({CH2CO}-Y[NMeA]NP[Dap]L[Hyp]W[Dab][X4][NMeNle][NMeNle]LCGD(X1)-OH; thioether N-14) reads 1.1 to 9 nM; that for `CCCC[C@H]1C(=O)N(C)[C@@H](CCCC)C(=O)N[C@@H](CC(C)C)C(=O)N[C@H](C(=O)NCC(=O)N[C@@H](CC(=O)NCCCOCCOCCOCCCNC(=O)CC[C@H](NC(=O)CCCCCCCCCCCCCCCCC(=O)O)C(=O)O)C(=O)O)CSCC(=O)N[C@@H](Cc2ccc(O)cc2)C(=O)N(C)[C@@H](C)C(=O)N[C@@H](CC(N)=O)C(=O)N2CCC[C@H]2C(=O)N[C@@H](CN)C(=O)N[C@@H](CC(C)C)C(=O)N2C[C@H](O)C[C@H]2C(=O)N[C@@H](Cc2c[nH]c3ccccc23)C(=O)N[C@@H](CCN)C(=O)N[C@H](Cc2cn(CC(=O)O)c3ncccc23)C(=O)N1C` [Example 14] ({CH2CO}-Y[NMeA]NP[Dap]L[Hyp]W[Dab][X2][NMeNle][NMeNle]LCGD(X3)-OH; thioether N-14), 10 to 60 nM.
